Experiments:
Cholinesterase = Cholinesterase (Homo sapiens, UniProt P06276)
Description: In vitro inhibition of Butyrylcholinesterase from human erythrocytes

Acetylcholinesterase = Acetylcholinesterase (Homo sapiens, UniProt P22303)
Description: In vitro inhibition of Acetylcholinesterase from human erythrocytes

Rattus norvegicus [1] = species: Rattus norvegicus; experiment: animal or person; conditions: 3 h
Rattus norvegicus [2] = species: Rattus norvegicus; experiment: animal or person
Description: ED50 for salivation was defined as the dose required to produce a level 2 rating on a 0-4 point scale after treatment.

[3] = Safety index is the ratio of acute lethality LD50 to extracellular AchE ED50.; format: toxicity; conditions: read-out: Safety index

Sequence of Cholinesterase (P06276 whole entry): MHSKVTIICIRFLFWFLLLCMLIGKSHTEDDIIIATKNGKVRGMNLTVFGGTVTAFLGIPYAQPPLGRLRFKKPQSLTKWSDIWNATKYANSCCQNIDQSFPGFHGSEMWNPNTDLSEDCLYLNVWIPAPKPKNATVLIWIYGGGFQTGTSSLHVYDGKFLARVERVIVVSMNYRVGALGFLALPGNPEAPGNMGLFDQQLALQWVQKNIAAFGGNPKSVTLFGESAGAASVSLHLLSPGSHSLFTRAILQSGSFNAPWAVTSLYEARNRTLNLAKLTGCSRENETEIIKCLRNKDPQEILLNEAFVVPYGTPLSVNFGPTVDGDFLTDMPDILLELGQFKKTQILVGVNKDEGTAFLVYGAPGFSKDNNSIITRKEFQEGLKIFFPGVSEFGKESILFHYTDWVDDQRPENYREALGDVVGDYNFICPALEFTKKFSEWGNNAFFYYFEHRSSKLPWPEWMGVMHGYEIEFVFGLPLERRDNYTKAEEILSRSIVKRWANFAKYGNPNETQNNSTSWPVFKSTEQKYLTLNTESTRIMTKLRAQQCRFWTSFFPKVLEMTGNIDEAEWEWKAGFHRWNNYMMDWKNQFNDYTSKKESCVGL
Sequence of Acetylcholinesterase (P22303 whole entry): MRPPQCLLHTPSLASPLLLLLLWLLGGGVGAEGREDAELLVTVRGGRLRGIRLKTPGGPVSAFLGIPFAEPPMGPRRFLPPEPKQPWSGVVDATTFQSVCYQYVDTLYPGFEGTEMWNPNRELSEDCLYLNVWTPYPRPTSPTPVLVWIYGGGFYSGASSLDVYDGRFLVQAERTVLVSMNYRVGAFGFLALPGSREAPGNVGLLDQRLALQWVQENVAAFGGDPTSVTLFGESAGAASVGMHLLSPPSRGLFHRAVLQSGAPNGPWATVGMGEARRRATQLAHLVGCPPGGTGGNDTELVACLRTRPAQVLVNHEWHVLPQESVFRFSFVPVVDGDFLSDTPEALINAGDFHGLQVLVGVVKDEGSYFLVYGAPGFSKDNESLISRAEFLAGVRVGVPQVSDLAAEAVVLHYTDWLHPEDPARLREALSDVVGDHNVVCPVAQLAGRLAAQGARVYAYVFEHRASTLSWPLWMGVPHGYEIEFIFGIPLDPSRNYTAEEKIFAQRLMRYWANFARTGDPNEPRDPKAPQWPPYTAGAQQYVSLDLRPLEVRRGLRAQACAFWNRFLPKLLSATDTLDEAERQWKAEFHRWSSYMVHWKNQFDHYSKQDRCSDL
Description for in vivo: LD50 for actute lethality is defined as the dose that resulted in the death of 50% of the animals 1 hr after treatment.

SMILES | IC50 (Cholinesterase) [nM] | IC50 (Acetylcholinesterase) [nM] | ED50 (Rattus norvegicus [1]) [mg/kg] | ED50 (Rattus norvegicus [2]) [mg/kg] | LD50 at 1 h (in vivo) [mg/kg] | selectivity ratio [3]
O=C1Cc2cc3onc(CCC4CCN(Cc5ccccc5)CC4)c3cc2N1 | 3900 | 0.95 |  |  |  | 
O=C1CCc2cc3c(CCC4CCN(Cc5ccccc5)CC4)noc3cc2N1 | 4000 | 0.57 |  |  |  | 
CC(=O)Nc1ccc2c(CCC3CCN(Cc4ccccc4)CC3)noc2c1 | 9000 |  |  |  |  | 
CN1C(=O)Cc2cc3c(CCC4CCN(Cc5ccccc5)CC4)noc3cc21 | 4500 | 0.48 |  |  |  | 
O=C1Cc2c(ccc3c(CCC4CCN(Cc5ccccc5)CC4)noc23)N1 | 2200 | 3.6 |  |  |  | 
O=C(O)/C=C\C(=O)O.O=C1Cc2cc3c(CCC4CCN(Cc5ccccc5)CC4)noc3cc2N1 [ICOPEZIL MALEATE] | 7200 | 0.33 | 0.4 | 26 | 42 | 105
